# According to US7410757B1, “Method of screening disease depressant gene” (Keio University, priority 1999, dated 2008):
# “Also recorded” adds a separate entry of the source. No end group written: not given here.
# What was measured:
# F11 cells [1] = test: F11 cell death induced by transfection of FAD genes, trypan blue exclusion assay; type: cell-based
# Procedure: (§1) F11 cells (Platika, D. et al. (1985) Proc. Natl. Acad. Sci. U.S.A. 82, 3499-3503; Yamatsuji, T. et al. (1996) Science 272, 1349-1352) were cultured in HamF-12 media containing 18% fetal bovine serum (FBS) and antibiotics. 7×10^4/well of F11 cells were seeded into a 6-well plate; cultured in HamF-12 containing 18% FBS for 12 to 16 hours; transfected 3 hours with plasmids encoding FAD genes and plasmids encoding HN (pHN, and such) by lipofection in the absence of serum (1 μg of FAD cDNA expression plasmid, 1 μg of HN cDNA expression plasmid, 4 μl of LipofectAMINE, 8 μl of Plus reagent); and then, were cultured for 2 hours in HamF-12 media containing 18% FBS. Then, culture media were exchanged with HamF-12 media containing 10% FBS; and the cells were cultured for additional 67 hours. 72 hours after transfection, cell death was measured by trypan blue exclusion assay. Experiments using synthetic HN polypeptides were conducted as follows: F11 cells (at 7×10^4/well in a 6-well plate) were transfected 3 hours with FAD genes in the absence of serum, as mentioned above; after cultivation for 2 hours in HamF-12 media containing 18% FBS, the cells were cultured for 67 hours in HamF-12 media containing 10% FBS with various concentrations of HN polypeptides; and cell death was measured by trypan blue exclusion assay. ALS-associated mutant cDNAs of SOD1 were also similarly transfected, and examined for their neurotoxicity.
# (§2) Trypan blue exclusion assay was performed as follows. Without prewashing, the cells were suspended with gentle pipetting into a serum-free media. 50 μl of 0.4% trypan blue solution (Sigma, Cat. #T-8154) were added (final concentration of 0.08%) to 200 μl cell suspension, and the suspension was mixed at room temperature. Within 3 minutes of the trypan blue solution addition, stained cells were counted. Cell mortality was determined [100−cell survival rate (%)] based on the stained cell count. LDH assay was performed using a kit (LDH-Cytotoxic Test; Wako Pure Chemical Industries, Cat. #299-50601) by sampling 6 μl of media in which neurons were cultured. Calcein staining was performed as described in literature (Bozyczko-Coyne, D. et al. (1993) Journal of Neuroscience Methods 50, 205-216). Specifically, 6 μM Calcein-AM {3′,6′-Di-(O-acetyl)-2′,7′-bis[N,N-bis(carboxymethyl)aminomethyl]fluorescein, tetraacetoxymethyl ester; Dojindo, Cat. #349-07201} was added to the neurons; and 30 minutes or longer after Calcein-AM treatment, fluorescence (ex=490 nm, em=515 nm) was observed by fluorescence microscopy, and measured by a spectrometer. Specific fluorescence was calculated by subtracting basal fluorescence from total fluorescence. Basal fluorescence was assigned to be the value calculated from linear trypan blue positivity-fluorescence intensity relationship, corresponding to 100% trypan blue positivity.
# F11/EcR cells [2] = test: F11/EcR cell death caused by ecdysone-induced expression of FAD genes, trypan blue exclusion assay; type: cell-based; conditions: treated with 1M sHN (so in the source); NL-APP, V642I APP, M146L PS-1 or N141I PS-2; ecdysone 72 h
# Procedure: F11/EcR cell experiment using ecdysone was conducted as follows: F11/EcR cells were seeded at 7×10^4/well into a 6-well plate; cultured for 12 to 16 hours in HamF-12 media containing 18% FBS; and were similarly transfected in the absence of serum for 3 hours with 1 μg of ecdysone-inducible plasmid alone, or with 1 μg of HN-encoding plasmid, as mentioned above. After culturing for 12 to 16 hours in HamF-12 media containing 18% FBS, the cells were cultured for 2 hours in HamF-12 media containing 10% FBS, then ecdysone (Ponasterone) was added to the media (final concentration of 40 μM). Cell death was measured 72 hours after ecdysone treatment. […] Cell death was measured by trypan blue exclusion assay after 72 hours from the ecdysone treatment. […]
# (§3) Trypan blue exclusion assay was performed as follows. […] Within 3 minutes of the trypan blue solution addition, stained cells were counted. Cell mortality was determined [100−cell survival rate (%)] based on the stained cell count. […] Specifically, 6 μM Calcein-AM {3′,6′-Di-(O-acetyl)-2′,7′-bis[N,N-bis(carboxymethyl)aminomethyl]fluorescein, tetraacetoxymethyl ester; Dojindo, Cat. #349-07201} was added to the neurons; and 30 minutes or longer after Calcein-AM treatment, fluorescence (ex=490 nm, em=515 nm) was observed by fluorescence microscopy, and measured by a spectrometer. […]
# F11/EcR cells [3] = test: F11/EcR cell death caused by ecdysone-induced expression of polyglutamine Q79, trypan blue exclusion assay; type: cell-based; conditions: 1 μM polypeptide, ecdysone 72 h
# Procedure: F11/EcR cell experiment using ecdysone was conducted as follows: F11/EcR cells were seeded at 7×10^4/well into a 6-well plate; cultured for 12 to 16 hours in HamF-12 media containing 18% FBS; and were similarly transfected in the absence of serum for 3 hours with 1 μg of ecdysone-inducible plasmid alone, or with 1 μg of HN-encoding plasmid, as mentioned above. After culturing for 12 to 16 hours in HamF-12 media containing 18% FBS, the cells were cultured for 2 hours in HamF-12 media containing 10% FBS, then ecdysone (Ponasterone) was added to the media (final concentration of 40 μM). Cell death was measured 72 hours after ecdysone treatment. Experiments using synthetic HN polypeptides were conducted as follows: cells were similarly transfected for 3 hours with FAD genes in the absence of serum; cultured for 12 to 16 hours in HamF-12 media containing 18% FBS; cultured for 2 hours in HamF-12 media containing 10% FBS and various concentrations of HN polypeptide; and then, 40 μM Ponasterone was added to the media. Cell death was measured by trypan blue exclusion assay after 72 hours from the ecdysone treatment. HD/SCA-associated Q79 cDNAs were also similarly transfected, and the neurotoxicity was tested.
# Trypan blue exclusion assay was performed as follows. […] Within 3 minutes of the trypan blue solution addition, stained cells were counted. Cell mortality was determined [100−cell survival rate (%)] based on the stained cell count. […] Specifically, 6 μM Calcein-AM {3′,6′-Di-(O-acetyl)-2′,7′-bis[N,N-bis(carboxymethyl)aminomethyl]fluorescein, tetraacetoxymethyl ester; Dojindo, Cat. #349-07201} was added to the neurons; and 30 minutes or longer after Calcein-AM treatment, fluorescence (ex=490 nm, em=515 nm) was observed by fluorescence microscopy, and measured by a spectrometer. Specific fluorescence was calculated by subtracting basal fluorescence from total fluorescence. Basal fluorescence was assigned to be the value calculated from linear trypan blue positivity-fluorescence intensity relationship, corresponding to 100% trypan blue positivity.
# F11 cells [4] = test: F11 cell death induced by ALS-associated SOD1 mutants (A4T, G85R, G93A), trypan blue exclusion assay; type: cell-based; conditions: 100 μM polypeptide, G85R or G93A SOD1
# Procedure: as §1
# as §3, with “spectrometer. Specific fluorescence was calculated by subtracting basal fluorescence from total fluorescence.” for “spectrometer.”
# [5] = system: primary cultured cortical neurons; test: Aβ1-43-induced cell death of primary cultured cortical neurons (trypan blue, LDH release, Calcein-AM, morphology); type: cell-based, mouse; conditions: for effect on Aβ-induced cell death and dystrophic neuritic changes of the axon: 25 μM Aβ1-43, 72 h
# Procedure: Primary culture of mouse cortical neurons was performed in poly-D-lysine-coated 24-well plates (Sumitomo Bakelite) in the absence of serum and in the presence of N2 supplement, as described in literature (Eksioglu, Y. Z. et al. (1994) Brain Res. 644, 282-90). The purity of neurons prepared according to the method was >98%. The prepared neurons (1.25×10^5/well, 250 μl media/well) were preincubated in the absence or presence of 10 nM or 10 μM sHN polypeptides for 16 hours; and were treated with 25 μM Aβ1-43 in the absence or presence of sHN polypeptides at the same concentrations for 24 to 72 hours. Since primary cultured neurons are damaged even by temporary dryness during medium exchange, treatment of the cells by Aβ1-43 was performed as follows. First, half of the volume of the old medium (125 μl) was discarded. Then, 125 μl of pre-warmed fresh medium containing 50 μM Aβ1-43 and sHN with a concentration indicated above were added to the culture.
# as §2
# primary cultured neurons = test: Etoposide-induced cell death of primary cultured neurons (trypan blue, LDH release); type: cell-based, mouse; conditions: 10 μM polypeptide, 20 μM etoposide, 72 h
# Procedure: 25 μM Aβ1-43 was added to primary cultured cortical neurons in the presence (at indicated concentrations) or absence of sHN, sHNG, or sHNA. Addition of HN polypeptides was performed similarly to that described in FIG. 12. 72 hours after the initiation of Aβ treatment, cell death was measured by trypan blue exclusion assay. Primary cultured neurons treated similarly for 72 hours with 20 μM etoposide in the presence or absence of 10 μM sHN or HN derivatives were used as the positive controls in these experiments. Similar experiments were performed at least three times, and reproducible results were obtained. Mean ±S.D. values of three independent experiments are indicated in the graphs.
# Cell damage was monitored as the amount of LDH released into the culture media. […] 24, 48, or 72 hours after the initiation of Aβ treatment, the amount of LDH in the culture media was measured. LDH release from neurons treated with 20 μM etoposide in the presence or absence of HN polypeptides was also measured. […]
# Trypan blue exclusion assay was performed as follows. […] Within 3 minutes of the trypan blue solution addition, stained cells were counted. Cell mortality was determined [100−cell survival rate (%)] based on the stained cell count. […] Specific fluorescence was calculated by subtracting basal fluorescence from total fluorescence. […]
# [6] = 10 μM polypeptide, 25 μM Aβ1-43
molecule,measurement,setting,value
CC[C@H](C)[C@H](NC(=O)[C@H](CCC(=O)O)NC(=O)[C@H](CO)NC(=O)[C@@H](NC(=O)[C@H](CC(C)C)NC(=O)[C@H](CC(C)C)NC(=O)[C@H](CC(C)C)NC(=O)[C@H](CC(C)C)NC(=O)[C@H](CS)NC(=O)[C@H](CO)NC(=O)[C@H](Cc1ccccc1)NC(=O)CNC(=O)[C@H](CCCNC(=N)N)NC(=O)[C@@H]1CCCN1C(=O)[C@H](C)NC(=O)[C@@H](N)CCSC)[C@@H](C)O)C(=O)N[C@@H](CC(=O)O)C(=O)N[C@@H](CC(C)C)C(=O)N1CCC[C@H]1C(=O)N[C@H](C(=O)N[C@@H](CCCCN)C(=O)N[C@@H](CCCNC(=N)N)C(=O)N[C@@H](CCCNC(=N)N)C(=O)N[C@@H](C)C(=O)O)C(C)C [sHN],suppression of cell death induced by V642I APP,"F11 cells [1]; 10 nM polypeptide, 72 h",extremely weak suppression
same,suppression of cell death induced by V642I APP,"F11 cells [1]; 10 μM polypeptide, 72 h",dramatically suppressed
same,concentration achieving complete suppression of cell death induced by V642I APP,F11 cells [1]; 72 h,1 to 10 µM
same,"concentration blocking neuronal death induced by NL-APP, M146L PS-1 and N141I PS-2","F11 cells [1]; any of the three FAD genes, 72 h",1 µM
same,effect of synthetic polypeptide on cell death caused by ecdysone-induced expression of FAD genes,F11/EcR cells [2],complete suppression; also recorded: significant suppressive effect
same,effect of synthetic polypeptide on neuronal death induced by Q79,F11/EcR cells [3],not suppressed; also recorded: lack of effects
same,effect of synthetic polypeptide on neuronal death induced by SOD1 mutants,F11 cells [4],couldn't be suppressed; also recorded: lack of the effect
same,effect on Aβ-induced cell death and dystrophic neuritic changes of the axon,[5]; 10 nM polypeptide,did not show any effect
same,cell damage (LDH released from the cells) after Aβ1-43 treatment,[5]; [6],completely restored to a level observed under basal conditions
same,cell death (trypan blue exclusion) after Aβ1-43 treatment,[5]; [6],completely restored to a level observed under basal conditions
same,effect on Aβ-induced cell death and dystrophic neuritic changes of the axon,[5]; 10 μM polypeptide,dramatically suppressed
same,prevention of the toxic effect of etoposide on primary cultured neurons,primary cultured neurons,could not prevent
MAPRGFSALLLLTSEIDLPVKRRA [sHNA],suppression of cell death induced by V642I APP,F11 cells [1]; concentrations up to 100 μM,did not significantly suppress
same,"antagonism of cell death by NL-APP, M146L PS-1 and N141I PS-2",F11 cells [1]; up to a concentration of 100 μM,did not antagonize
same,effect of synthetic polypeptide on neuronal death induced by Q79,F11/EcR cells [3],Extensive cell death; also recorded: lack of effects
same,effect of synthetic polypeptide on neuronal death induced by SOD1 mutants,F11 cells [4],couldn't be suppressed; also recorded: lack of the effect
same,effect on Aβ-induced cell death and dystrophic neuritic changes of the axon,[5]; 10 μM polypeptide,did not show any effect
MAPRGFSCLLLLTGEIDLPVKRRA [sHNG],concentration giving complete antagonizing effect on cell death induced by V642I APP,F11 cells [1]; 72 h,≤ 10 nM
same,concentration completely antagonizing neuronal death induced by all of the four different types of FAD genes,"F11 cells [1]; V642I APP, NL-APP, M146L PS-1, N141I PS-2",≤ 10 nM
same,"concentration completely suppressing cell death caused by NL-APP, M146L PS-1 and N141I PS-2","F11 cells [1]; any of the FAD genes, 72 h",≤ 10 nM
same,enhancement of the action of HN by S14G substitution,F11 cells [1]; relative to original HN,100 to 1000 fold
same,effect of synthetic polypeptide on cell death caused by ecdysone-induced expression of FAD genes,F11/EcR cells [2],complete suppression
same,effect of synthetic polypeptide on neuronal death induced by Q79,F11/EcR cells [3],Extensive cell death; also recorded: lack of effects
same,effect of synthetic polypeptide on neuronal death induced by SOD1 mutants,F11 cells [4],couldn't be suppressed; also recorded: lack of the effect
same,effect on Aβ-induced cell death and dystrophic neuritic changes of the axon,[5]; 10 nM polypeptide,completely protected
NGF: NGF tested at 100 ng/ml as comparator [reference compound],antagonism of cell death of neurons induced by Aβ,"[5]; 100 ng/ml, data not shown",did not show effects to antagonize
same,antagonism of increased LDH release induced by Aβ,"[5]; 100 ng/ml, data not shown",did not show effects to antagonize
